“And” between values parts separate entries of the source, which are not always exact repeats. Equal values may be shown once. Inconclusive results and toxic doses are left out. Rule as the data show it: active = T/C of 150% or more; inactive = T/C below 125%.
System: L1210 leukemia ip in BDF1 mice, survival T/C
Test: NCI In Vivo Anticancer Drug Screen. Data for tumor model L1210 Leukemia (intraperitoneal) in B6D2F1 (BDF1) mice
Details: endpoint: mean survival time, higher = longer survival
In short: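 Ratio derived from survival: compound-dosed mice over vehicle-dosed mice, all bearing a transplantable tumor.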

[1] = dose: 100.0 mg/kg/injection, schedule: Q01DX009 (ip), vehicle: Klucel (hydroxypropylcellulose) (HPC)
[2] = dose: 100.0 mg/kg/injection, schedule: Q04DX003 (ip), vehicle: Klucel (hydroxypropylcellulose) (HPC)
[3] = dose: 200.0 mg/kg/injection, schedule: Q04DX003 (ip), vehicle: Klucel (hydroxypropylcellulose) (HPC)
[4] = dose: 400.0 mg/kg/injection, schedule: Q01DX009 (ip), vehicle: Klucel (hydroxypropylcellulose) (HPC)
[5] = dose: 400.0 mg/kg/injection, schedule: Q04DX003 (ip), vehicle: Klucel (hydroxypropylcellulose) (HPC)
[6] = dose: 50.0 mg/kg/injection, schedule: Q01DX009 (ip), vehicle: Klucel (hydroxypropylcellulose) (HPC)

Measured: T/C

CC(=O)Nc1cncc2ccccc12
inactive: dose: 100.0 mg/kg/injection, schedule: Q01DX009 (ip), vehicle: other 104 % of control | dose: 100.0 mg/kg/injection, schedule: Q04DX002 (ip), vehicle: other 97 % of control | dose: 200.0 mg/kg/injection, schedule: Q01DX009 (ip), vehicle: other 101 % of control | dose: 200.0 mg/kg/injection, schedule: Q04DX002 (ip), vehicle: other 105 % of control | dose: 400.0 mg/kg/injection, schedule: Q01DX009 (ip), vehicle: other 106 % of control | dose: 400.0 mg/kg/injection, schedule: Q04DX002 (ip), vehicle: other 105 % of control

C/C(=N/N(C)C)c1ccc(F)cc1
inactive: dose: 6.25 mg/kg/injection, schedule: Q01DX009 (ip), vehicle: saline 94 % of control | dose: 12.5 mg/kg/injection, schedule: Q01DX009 (ip), vehicle: saline 98 % of control | dose: 25.0 mg/kg/injection, schedule: Q01DX009 (ip), vehicle: saline 106 % of control | dose: 50.0 mg/kg/injection, schedule: Q01DX009 (ip), vehicle: saline 101 % of control | dose: 100.0 mg/kg/injection, schedule: Q01DX009 (ip), vehicle: saline 94 % of control

O=C(O)c1cccc2c1C(=O)c1c(O)cccc1C2=O
inactive: dose: 50.0 mg/kg/injection, schedule: Q04DX002 (ip), vehicle: Klucel (hydroxypropylcellulose) (HPC) 105 % of control | dose: 100.0 mg/kg/injection, schedule: Q04DX002 (ip), vehicle: Klucel (hydroxypropylcellulose) (HPC) 96 % of control | dose: 200.0 mg/kg/injection, schedule: Q04DX002 (ip), vehicle: Klucel (hydroxypropylcellulose) (HPC) 92 % of control

COC(=O)CCCN1C(=O)c2ccccc2C1=O
inactive: dose: 100.0 mg/kg/injection, schedule: Q04DX002 (ip), vehicle: carboxymethylcellulose (CMC) 102 % of control and 87 % of control | dose: 100.0 mg/kg/injection, schedule: Q04DX003 (ip), vehicle: carboxymethylcellulose (CMC) 94 % of control | dose: 200.0 mg/kg/injection, schedule: Q04DX002 (ip), vehicle: carboxymethylcellulose (CMC) 97 % of control and 91 % of control | dose: 200.0 mg/kg/injection, schedule: Q04DX003 (ip), vehicle: carboxymethylcellulose (CMC) 92 % of control | dose: 400.0 mg/kg/injection, schedule: Q04DX002 (ip), vehicle: carboxymethylcellulose (CMC) 93 % of control and 90 % of control | dose: 400.0 mg/kg/injection, schedule: Q04DX003 (ip), vehicle: carboxymethylcellulose (CMC) 99 % of control

Cc1ccccc1N=Nc1c(O)[nH]c2ccccc12
inactive: dose: 100.0 mg/kg/injection, schedule: Q01DX001 (ip), vehicle: acetone 93 % of control | dose: 200.0 mg/kg/injection, schedule: Q01DX001 (ip), vehicle: acetone 95 % of control | dose: 400.0 mg/kg/injection, schedule: Q01DX001 (ip), vehicle: acetone 96 % of control

CCOC(=S)Nc1ccc(S(=O)(=O)c2ccc(NC(=S)OCC)cc2)cc1
inactive: dose: 100.0 mg/kg/injection, schedule: Q01DX001 (ip), vehicle: saline 96 % of control | dose: 200.0 mg/kg/injection, schedule: Q01DX001 (ip), vehicle: saline 92 % of control | dose: 400.0 mg/kg/injection, schedule: Q01DX001 (ip), vehicle: saline 98 % of control

Cc1cc(C)nc(NC(=O)Nc2ccccc2)c1
inactive: [1] 93 % of control | [2] 94 % of control | [3] 92 % of control | [4] 100 % of control | [5] 89 % of control

COc1cc2c(cc1OC)C1(CCCl)C3CC4C(=CCOC5CC(=O)N2C1C54)CN3C(=O)Cc1ccccc1 (stereo not given)
inactive: dose: 75.0 mg/kg/injection, schedule: Q01DX001 (ip), vehicle: saline 100 % of control

CC12C=CC(=O)C=C1CCC1C3CCC(O)(C(=O)CO)C3(C)CC(O)C12F (stereo not given)
inactive: dose: 25.0 mg/kg/injection, schedule: Q04DX003 (sc), vehicle: steriod suspending solution 108 % of control | dose: 50.0 mg/kg/injection, schedule: Q04DX003 (sc), vehicle: steriod suspending solution 106 % of control | dose: 100.0 mg/kg/injection, schedule: Q04DX003 (sc), vehicle: steriod suspending solution 123 % of control | dose: 150.0 mg/kg/injection, schedule: Q04DX003 (sc), vehicle: steriod suspending solution 100 % of control | dose: 225.0 mg/kg/injection, schedule: Q04DX003 (sc), vehicle: steriod suspending solution 111 % of control | dose: 335.0 mg/kg/injection, schedule: Q04DX003 (sc), vehicle: steriod suspending solution 105 % of control

C/C(=C\Cl)C(=O)O
inactive: dose: 100.0 mg/kg/injection, schedule: Q04DX003 (ip), vehicle: saline 99 % of control | dose: 200.0 mg/kg/injection, schedule: Q04DX003 (ip), vehicle: saline 101 % of control

CC1CCC(C(=O)O)ON1 (stereo not given)
inactive: dose: 100.0 mg/kg/injection, schedule: Q04DX002 (ip), vehicle: saline 114 % of control | dose: 200.0 mg/kg/injection, schedule: Q04DX002 (ip), vehicle: saline 95 % of control | dose: 400.0 mg/kg/injection, schedule: Q04DX002 (ip), vehicle: saline 100 % of control

COC(=O)/C(Cl)=C(\Cl)C(=O)OC
inactive: dose: 100.0 mg/kg/injection, schedule: Q01DX009 (ip), vehicle: saline with Tween-80 95 % of control | [2] 96 % of control | dose: 100.0 mg/kg/injection, schedule: Q04DX003 (ip), vehicle: saline with Tween-80 102 % of control | dose: 200.0 mg/kg/injection, schedule: Q04DX003 (ip), vehicle: saline with Tween-80 107 % of control

C=CC[Se]c1ncnc2c1ccn2C1OC(CO)C(O)C1O (stereo not given)
inactive: dose: 12.5 mg/kg/injection, schedule: Q01DX005 (ip), vehicle: saline 101 % of control | dose: 25.0 mg/kg/injection, schedule: Q01DX005 (ip), vehicle: saline 107 % of control | dose: 50.0 mg/kg/injection, schedule: Q01DX005 (ip), vehicle: saline 107 % of control | dose: 100.0 mg/kg/injection, schedule: Q01DX005 (ip), vehicle: saline 102 % of control

Cc1ccc(NC(=O)c2ccc([N+](=O)[O-])cc2)cc1Cl
inactive: dose: 25.0 mg/kg/injection, schedule: Q01DX009 (ip), vehicle: Klucel (hydroxypropylcellulose) (HPC) 95 % of control | [6] 103 % of control | dose: 100.0 mg/kg/injection, schedule: Q01DX001 (ip), vehicle: Klucel (hydroxypropylcellulose) (HPC) 95 % of control | [1] 103 % of control | [2] 93 % of control | dose: 200.0 mg/kg/injection, schedule: Q01DX001 (ip), vehicle: Klucel (hydroxypropylcellulose) (HPC) 106 % of control | [3] 95 % of control | dose: 400.0 mg/kg/injection, schedule: Q01DX001 (ip), vehicle: Klucel (hydroxypropylcellulose) (HPC) 98 % of control | [5] 98 % of control

O=[N+]([O-])c1ccc(N=N/C(Cc2ccccc2)=N\Nc2ccccc2)cc1
inactive: [6] 90 % of control | [1] 95 % of control | [2] 87 % of control | dose: 200.0 mg/kg/injection, schedule: Q01DX009 (ip), vehicle: Klucel (hydroxypropylcellulose) (HPC) 92 % of control | [3] 100 % of control | [4] 90 % of control | [5] 101 % of control

O=[N+]([O-])c1cnc(C2=C(O)c3ccccc3CC2)s1
inactive: dose: 100.0 mg/kg/injection, schedule: Q01DX001 (ip), vehicle: saline with Tween-80 97 % of control

CN(N=O)C(=O)NCCc1ccccc1
inactive: dose: 6.25 mg/kg/injection, schedule: Q01DX Z (ip), vehicle: carboxymethylcellulose (CMC) 101 % of control | dose: 12.5 mg/kg/injection, schedule: Q01DX Z (ip), vehicle: carboxymethylcellulose (CMC) 112 % of control | dose: 25.0 mg/kg/injection, schedule: Q01DX Z (ip), vehicle: carboxymethylcellulose (CMC) 93 % of control | dose: 50.0 mg/kg/injection, schedule: Q01DX Z (ip), vehicle: carboxymethylcellulose (CMC) 98 % of control | dose: 100.0 mg/kg/injection, schedule: Q01DX Z (ip), vehicle: carboxymethylcellulose (CMC) 109 % of control | dose: 200.0 mg/kg/injection, schedule: Q01DX Z (ip), vehicle: carboxymethylcellulose (CMC) 98 % of control | dose: 400.0 mg/kg/injection, schedule: Q01DX Z (ip), vehicle: carboxymethylcellulose (CMC) 108 % of control

— PubChem BioAssay AID248 (DTP/NCI, 2004)
